Measurements published in patent US7977364B2, “Indazoles, benzisoxazoles and benzisothiazoles and their use as estrogenic agents” (Laboratoire Thermamex, priority 2004, dated 2011).
Where two headings read alike, the source gives them in different places.

Legend:
[1] = system: human breast cancer cell line MCF-7; assay: Proliferative activity in vitro (ATP luminescence, 6 days); format: cell-based; details: Homo sapiens, MCF7, 144 h
Procedure, shortened: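 Proliferative (estrogen-like) response of MCF-7 cells held in phenol red-free DMEM with 5% charcoal-stripped serum, seeded at 4.10^3 cells/well. Compounds in estrogen-free DMEM for six days at 37 °C. Viable cells by ATP luciferase luminescence as % of control; EC50 from sigmoidal dose-response curves.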

Prepubescent female rats = assay: Estrogenic / uterotrophic activity in vivo (uterus wet weight); design: species or system rat; details: for change in vivo at 3 mg: orally 3 mg/rat/day for 3 days
Procedure, shortened: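 Prepubescent female rats dosed orally for 3 days at 3 mg/rat/day, or at 0.3, 1, 3 or 10 mg/rat/day. Uteri removed the following day and wet-weighed; values given as % stimulation of uterine weight over vehicle.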

[2] = molecular target: T1, purified full-length recombinant human ERα (Homo sapiens, UniProt P03372); assay: Estrogen receptor α competitive radiometric binding assay ([3H]-E2)
T1 sequence (P03372 1-595): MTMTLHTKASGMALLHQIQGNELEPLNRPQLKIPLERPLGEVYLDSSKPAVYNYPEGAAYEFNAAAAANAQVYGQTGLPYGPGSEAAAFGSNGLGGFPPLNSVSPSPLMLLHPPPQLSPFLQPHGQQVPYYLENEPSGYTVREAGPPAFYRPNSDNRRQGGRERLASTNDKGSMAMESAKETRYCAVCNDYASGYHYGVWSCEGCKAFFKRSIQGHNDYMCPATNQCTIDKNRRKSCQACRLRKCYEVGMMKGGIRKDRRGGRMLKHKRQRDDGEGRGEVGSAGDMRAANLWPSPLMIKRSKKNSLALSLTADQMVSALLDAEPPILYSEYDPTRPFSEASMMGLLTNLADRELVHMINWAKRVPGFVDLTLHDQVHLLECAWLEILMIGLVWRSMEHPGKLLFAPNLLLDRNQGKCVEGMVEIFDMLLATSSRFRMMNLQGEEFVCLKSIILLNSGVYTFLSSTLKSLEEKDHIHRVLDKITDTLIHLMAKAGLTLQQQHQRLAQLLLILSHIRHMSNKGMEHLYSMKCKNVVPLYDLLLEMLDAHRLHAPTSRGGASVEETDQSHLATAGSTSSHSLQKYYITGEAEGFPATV
Procedure: Relative binding affinities (RBA) were determined by competitive radiometric binding assays, using purified full-length recombinant human ERα and ERβ (PanVera, Madison, Wis.). […] After shaking for a few seconds and centrifugation at 1500 g and 4° C. for 10 minutes, 150 μl/well of Optiphase ‘Super Mix’ scintillation liquid was mixed with 50 μl of supernatant of each sample and the radioactivity was measured in a MicroBeta counter (Wallac, Turku, Finland). Data were evaluated by a sigmoidal dose-response curve (Prism, GraphPad Software Inc.) to estimate the concentration of competitor at half-maximal specific binding (IC50). […] The selectivity for ERα and ERβ was obtained from the ratio R of the IC50 for ERα to the IC50 for ERβ for each test compound.

rats = assay: Forced swimming test (antidepressant activity, immobility duration); format: in vivo, rat
Source text: Antidepressant effect of estradiol was recently reported in studies using ER β KO mice model. In addition, ER β localization in dorsal raphe nucleus area in rat has been described. The gold standard test for antidepressant potency of compound consist in the forced swimming test, in this experiment antidepressants could be distinguished from psychostimulants which decreased immobility at doses which increased general activity. In order to investigate the putative antidepressant potency of the compounds reported here, the forced swimming test was performed according to the following design. The animals were housed six per cage under standard colony conditions, with a 12 h light/dark cycle and ad libitum food and water. They were allowed to acclimatize to the colony for at least 7 days prior to any experimentation. For subcutaneous administration, the compound of Example 23 was dissolved in olive oil and diluted to the desired concentration on the day of administration. For positive control, intraperitoneal (i.p.) injection of desipramine was done. Desipramine was dissolved in double-distilled water (10 mg/kg). The experiments were conducted 30 min after the positive control drug treatment (only for desipramine treatment). Other compounds, ie: estradiol and the compound of Example 23 were daily injected subcutaneously in rats, during a 7 days period. Acquisition were performed on day 8 (24 h after the last administration of items) and day 9 (48 h after estradiol or compound 23 administration), respectively. Data acquired 24 hours after the last administration consisted in the “naïve animal group”, these animals had never been previously tested in the device. Data acquired 48 hours after a last administration of compounds consisted in “trained animal group”.
On the 8th, the forced swim test was performed. This study was carried out in rats according to the methods described by Porsolt (Eur. J. Pharm., 1978). Briefly, rats were placed individually in glass cylinders (height: 40 cm, diameter: 18 cm) containing 25 cm of water at 25° C. Ten minutes later, rats were removed and dried before being returned to their home cages. The animals were replaced in the cylinders 24 h later, and the procedure was repeated, and a 10-min observation period was recorded.

EC50 ([1]; MCF-7, six days, read-out: Cell proliferation EC50 (nM) ± S.E.M): 376 ± 70.1 nM
uterotrophicity after oral administration (Prepubescent female rats; up to a 3 mg/animal/day dosage, in words): lack of uterotrophicity
IC50 [2]: 1.33 ± 0.268 µM
RBA (%) Mean ± S.E.M, ER α ([2]; ratio of IC50s of E2 and competitor, E2 set at 100%): 0.2 ± 0.05%
Structure (SMILES): Oc1ccc2c(C3CCCC3)n[nH]c2c1 [Ex 23, 3-cyclopentyl-1H-indazol-6-ol]
activity at 1 µM ([1]; MCF-7, 10^−6 M, six days, read-out: Effect at 10^−6 M (% of control)): 176%
activity at 0.01 µM ([1]; MCF-7, 10^−8 M, six days, read-out: Effect at 10^−8 M (% of control)): 81.7%
change in vivo at 3 mg (Prepubescent female rats; Rattus norvegicus, po, 72 h, Table 4, read-out: % stimulation vs vehicle (uterus weight)): 12%
change in vivo at 0.3 mg (Prepubescent female rats; Rattus norvegicus, po, 72 h, Table 5, orally 0.3 mg/rat/day for 3 days, read-out: % stimulation vs vehicle (uterus weight)): -13%
change in vivo at 1 mg (Prepubescent female rats; Rattus norvegicus, po, 72 h, Table 5, orally 1 mg/rat/day for 3 days, read-out: % stimulation vs vehicle (uterus weight)): -5%
change in vivo at 3 mg (Prepubescent female rats; Rattus norvegicus, po, 72 h, Table 5, read-out: % stimulation vs vehicle (uterus weight)): -4%
change in vivo at 10 mg (Prepubescent female rats; Rattus norvegicus, po, 72 h, Table 5, orally 10 mg/rat/day for 3 days, read-out: % stimulation vs vehicle (uterus weight)): 20%
in vivo estrogenic activity after oral administration (Prepubescent female rats; in words): weak in vivo estrogenic activity
immobility duration, Naïve animals (rats; 2.8 mg/rat/day s.c. 7 days, 24 h after last administration, 10 minutes test): 45.2 ± 15.6 s
immobility duration, Trained animals (rats; 2.8 mg/rat/day s.c. 7 days, 48 h after last administration, 10 minutes test): 160.7 ± 44.1 s
antidepressor activity, animals first-in-the-test (rats; 24 h after administration, in words): exhibited a antidepressor activity
antidepressor potency, trained animal group (rats; 48 h after administration, in words): disappeared
